The record followed here is patent US8273771B2, “Ischemic disorder or disease inhibitors” (Pronas Pharma AB, priority 2007, dated 2012).

Where two headings read alike, the source gives them in different places.

The test system of test [1] is MCA from rats with induced SAH. Nature of the test: Myograph contractile response to Ang II (via AT1) in cerebral arteries of treated SAH rats. In kind it is in vivo, rat. The conditions noted are these: in presence of PD123319, compared to SAH rats, no significant difference to sham. The protocol:
The brains were quickly removed and chilled in ice-cold bicarbonate buffer solution (see composition below). Under a dissection microscope, the middle cerebral artery (MCA), the basilar artery (BA) and circle of Willis were carefully dissected free from the brain and cleared of connective tissue. The MCA and BA were immediately mounted in myographs for in vitro pharmacology or snap frozen at -80° C. and examined by real-time PCR. […] Measurements were recorded on a computer by use of a PowerLab unit (ADInstruments). […] The contractile capacity was determined by exposing the vessels to an isotonic solution containing 63.5 mM of K+, obtained by partial change of NaCl for KCl in the above buffer. […] Data are expressed as mean±standard error of the mean (s.e.m.), and n refers to the number of rats. […] In vitro Pharmacology Contractile responses in each segment are expressed as percentage of the 63.5 mM K+ induced contraction. […]

The next test has as its system AT1 receptor protein. Nature of the test: Immunohistochemistry of cerebral arteries after SAH. The following applies: smooth muscle cell layer; sham 100±7%, SAH 168±7%. The class given is in vivo, rat. From the text:
(§1) The MCA and BA were dissected out and then placed onto Tissue TEK (Gibco) and frozen. They were then sectioned into 10 μm thick slices. The primary antibodies used were rabbit antihuman ETB (IBL, 16207), diluted 1:400, goat anti mouse 5-HT1B (Santa Cruz Biotechnologies, sc-1461), diluted 1:100, AT1 (Santa Cruz Biotechnologies), diluted 1:100, mouse anti rat CD31 (Serotec, MCA1746), diluted 1:200, and mouse anti rat smooth muscle actin (Serotec, MCA1905T) diluted 1:100. All dilutions were done in PBS with 10% fetal calf serum. The secondary antibodies used were donkeyantimouse Cy™5 conjugated (JacksonImmunoResearch, 715-175-150) 1:100, donkeyantirabbit Cy™3 conjugated (JacksonImmunoResearch, 711-165-152) 1:100 in PBS with 10% fetal calf serum. The antibodies were detected at the appropriate wavelength in a confocal microscopy (Zeiss, USA). As control, only secondary antibodies were used.
(§2) The images were analysed using the ImageJsoftware (http://rsb.info.nih.gov/ij/). The fluorescence in 4-6 different areas in each artery was measured and a mean value was calculated. These values are presented as percentage fluorescence in the SAH groups compared to the sham group, where the sham group is set to 100%.

The subject of the next test is ETB receptor protein. Described as above. In kind it is in vivo, rat. The conditions noted are these: smooth muscle cell layer; sham 100±3%, SAH 167±4%.
Excerpt: as §1, §2

The subject of a further test is pERK1/2. Described as above. The class given is in vivo, rat. The conditions noted are these: smooth muscle cells; sham 100±3%, SAH 188±7%.
The test system of test [2] is rats after MCA occlusion and reperfusion. The following applies: for brain damage (% of total volume): control 24.8±2%; for oedema (% of total volume): control 1.01±0.03. As to the method: This group of animals went through the same procedure as the above-mentioned SAH animals. Two hours after the MCA occlusion, the rat was re-anesthetized to allow for withdrawal of the filament and subsequent reperfusion of the brain. In conjunction with the reperfusion (0 h), at 6 h or at 12 h afterwards, and at 24 h after the start of the reperfusion in the same animal, the rats were injected intraperitoneal with 30 mg/kg U0126 dissolved in dimethylsulfoxide (DMSO). […] Control rats were injected with an equal volume of DMSO at the same time points.

In the case of `Oc1cc(-c2nc(-c3ccccc3)[nH]c2-c2ccncc2)ccc1Cl` [SB386023-b], the “Ang II induced contractile response” value in test [1] is “significantly attenuated”. In addition, the “AT1 receptor protein level, fluorescence compared to sham” value in the test with AT1 receptor protein was determined as 105±10%. In the test with ETB receptor protein, the “ETB receptor protein level, fluorescence compared to sham” value is 109±5%. For the same compound, the “pERK1/2 level, fluorescence compared to sham” value with pERK1/2 came to 102±5%.

In the case of `N#CC(=C(/N)Sc1ccccc1N)/C(C#N)=C(\N)Sc1ccccc1N` [U0126], the “brain damage (% of total volume)” value in test [2] (30 mg/kg i.p. starting after 12 h) is 20.3±1%; in test [2] (30 mg/kg i.p. starting at 0 h after MCAO reperfusion), 11.8±2%; in test [2] (30 mg/kg i.p. starting at 6 h), 14.6±3%. In test [2] (intraperitoneal, doses 10 to 100 mg/kg evaluated, preliminary experiments), the “lowest dose that elicited a clear significant effect on infarct volume” value is on record as 30 mg/kg. In addition, the “oedema (% of total volume)” value is 1.05±0.02 % of total volume in test [2] (treatment starting at 0 h), 0.98±0.02 % of total volume in test [2] (treatment starting at 6 h) and 1.02±0.04 % of total volume in test [2] (treatment starting at 12 h).
